Data: patent US20080306076A1, “MODULATION OF CHEMOSENSORY RECEPTORS AND LIGANDS ASSOCIATED THEREWITH” (SENOMYX, INC., priority 2007, published 2008)
Substitutions are numbered along the chain they refer to.

Key:
hT1R1 H308A = target: T1, hT1R1 H308A (Homo sapiens, UniProt Q7RTX1, H308A); assay: Mutagenesis study, hT1R1 mutant H308A; format: cell-based; details: H308 mutation
T1 construct: expressed in transfected cells; host or cells: HEK293, transient transfection
T1 sequence (Q7RTX1 21-841 H308A): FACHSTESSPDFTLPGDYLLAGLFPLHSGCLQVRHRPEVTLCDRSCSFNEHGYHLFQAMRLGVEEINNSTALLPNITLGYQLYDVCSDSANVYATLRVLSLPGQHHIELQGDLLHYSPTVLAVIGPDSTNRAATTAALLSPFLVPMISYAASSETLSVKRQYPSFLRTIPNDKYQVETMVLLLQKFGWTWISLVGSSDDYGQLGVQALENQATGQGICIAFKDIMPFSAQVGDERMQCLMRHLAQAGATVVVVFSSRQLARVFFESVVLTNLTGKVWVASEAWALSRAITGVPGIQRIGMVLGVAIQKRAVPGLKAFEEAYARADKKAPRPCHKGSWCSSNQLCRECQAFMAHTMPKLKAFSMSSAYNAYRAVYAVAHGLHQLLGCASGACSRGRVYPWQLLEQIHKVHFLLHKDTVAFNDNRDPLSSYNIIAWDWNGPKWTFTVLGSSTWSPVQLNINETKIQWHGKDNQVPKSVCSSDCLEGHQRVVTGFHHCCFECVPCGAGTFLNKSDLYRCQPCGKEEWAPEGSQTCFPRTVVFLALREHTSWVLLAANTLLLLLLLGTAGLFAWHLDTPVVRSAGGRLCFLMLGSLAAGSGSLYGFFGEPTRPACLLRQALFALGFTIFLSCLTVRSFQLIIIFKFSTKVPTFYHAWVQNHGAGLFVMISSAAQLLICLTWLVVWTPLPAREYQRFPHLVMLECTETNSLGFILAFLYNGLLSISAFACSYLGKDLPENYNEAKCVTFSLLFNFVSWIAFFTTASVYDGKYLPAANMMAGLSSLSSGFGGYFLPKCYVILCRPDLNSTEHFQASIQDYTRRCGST
T1 sequence (Q923K1 21-858 partner): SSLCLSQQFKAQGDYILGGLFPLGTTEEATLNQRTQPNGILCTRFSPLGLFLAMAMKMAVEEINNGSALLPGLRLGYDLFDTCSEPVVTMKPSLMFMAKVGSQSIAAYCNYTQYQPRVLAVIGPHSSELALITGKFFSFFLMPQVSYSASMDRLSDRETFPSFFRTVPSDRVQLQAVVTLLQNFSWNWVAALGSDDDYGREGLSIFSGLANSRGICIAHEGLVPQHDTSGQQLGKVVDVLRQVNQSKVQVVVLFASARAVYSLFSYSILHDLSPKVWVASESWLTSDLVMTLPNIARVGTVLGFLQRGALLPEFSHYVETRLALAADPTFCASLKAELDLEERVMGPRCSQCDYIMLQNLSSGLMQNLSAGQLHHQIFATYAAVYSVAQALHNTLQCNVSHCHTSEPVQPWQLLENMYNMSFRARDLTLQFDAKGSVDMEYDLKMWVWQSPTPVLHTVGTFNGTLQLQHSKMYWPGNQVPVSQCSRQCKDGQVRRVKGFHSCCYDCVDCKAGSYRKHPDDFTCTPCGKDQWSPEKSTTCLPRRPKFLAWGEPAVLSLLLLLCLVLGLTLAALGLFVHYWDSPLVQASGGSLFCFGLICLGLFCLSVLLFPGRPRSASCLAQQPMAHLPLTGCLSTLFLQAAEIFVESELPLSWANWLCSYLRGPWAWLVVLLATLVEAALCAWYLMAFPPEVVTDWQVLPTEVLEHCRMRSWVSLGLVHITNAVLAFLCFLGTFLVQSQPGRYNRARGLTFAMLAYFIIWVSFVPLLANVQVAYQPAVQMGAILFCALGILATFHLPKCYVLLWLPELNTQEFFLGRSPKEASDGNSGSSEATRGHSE
Text: (§1) In order to further define the interaction sites of umami stimuli, we performed site-directed mutagenesis on human T1R1 VFT. The mutagenesis was done using the routine PCR-based method. […] were transiently transfected into HEK293 cell together with the rat T1R3 wild type cDNA, and the transfected cells were characterized using an automated FLIPR machine or a calcium imaging system as described in our previous patent applications.

hT1R1 S172A = target: T2, hT1R1 S172A (Homo sapiens, UniProt Q7RTX1, S172A); assay: Mutagenesis study, hT1R1 mutant S172A; format: cell-based; details: S172 mutant, FIG. 11
T2 construct: expressed in transfected cells; host or cells: HEK293, transient transfection
T2 sequence (Q7RTX1 21-841 S172A): T1 sequence (Q7RTX1 21-841 H308A) with S152A, A288H
T2 sequence (Q923K1 21-858 partner): T1 sequence (Q923K1 21-858 partner)
Text: as §1

In the case of `Nc1nc2c(ncn2[C@@H]2O[C@H](COP(=O)(O)O)[C@@H](O)[C@H]2O)c(=O)[nH]1` [GMP, guanosine-5′-monophosphate], the “enhancement activity of GMP” value (hT1R1 H308A) is reported as “similarly affected”.
For `N[C@@H](CCC(=O)O)C(=O)O` [L-Glu, L-glutamate], the “activity against L-Glu” value (hT1R1 S172A) was “significant reduced activity”.
